Source: article PMC3071989 (Clinical cancer research : an official journal of the …, 2010)
Each block holds one compound with its values, some of them ahead of it.

Columns and labels:
[1] = patients who receive weekly docetaxel; cited from earlier work
[2] = Docetaxel plasma pharmacokinetics with and without tariquidar; format: in vivo, human; conditions: docetaxel 40 mg/m2, tariquidar 150 mg
Pgp [3] = target: T1, Pgp (Homo sapiens, UniProt P08183); experiment: Rhodamine 123 efflux from CD56+ mononuclear cells of patients; format: cell-based
Pgp [4] = target: T1, Pgp; experiment: 99mTc-sestamibi scanning before and after tariquidar; format: in vivo; conditions: after tariquidar 150 mg vs baseline
ABCG2 = conditions: compared with Pgp; cited from earlier work
MRP1 = conditions: cited from earlier work

T1 sequence (P08183 whole entry): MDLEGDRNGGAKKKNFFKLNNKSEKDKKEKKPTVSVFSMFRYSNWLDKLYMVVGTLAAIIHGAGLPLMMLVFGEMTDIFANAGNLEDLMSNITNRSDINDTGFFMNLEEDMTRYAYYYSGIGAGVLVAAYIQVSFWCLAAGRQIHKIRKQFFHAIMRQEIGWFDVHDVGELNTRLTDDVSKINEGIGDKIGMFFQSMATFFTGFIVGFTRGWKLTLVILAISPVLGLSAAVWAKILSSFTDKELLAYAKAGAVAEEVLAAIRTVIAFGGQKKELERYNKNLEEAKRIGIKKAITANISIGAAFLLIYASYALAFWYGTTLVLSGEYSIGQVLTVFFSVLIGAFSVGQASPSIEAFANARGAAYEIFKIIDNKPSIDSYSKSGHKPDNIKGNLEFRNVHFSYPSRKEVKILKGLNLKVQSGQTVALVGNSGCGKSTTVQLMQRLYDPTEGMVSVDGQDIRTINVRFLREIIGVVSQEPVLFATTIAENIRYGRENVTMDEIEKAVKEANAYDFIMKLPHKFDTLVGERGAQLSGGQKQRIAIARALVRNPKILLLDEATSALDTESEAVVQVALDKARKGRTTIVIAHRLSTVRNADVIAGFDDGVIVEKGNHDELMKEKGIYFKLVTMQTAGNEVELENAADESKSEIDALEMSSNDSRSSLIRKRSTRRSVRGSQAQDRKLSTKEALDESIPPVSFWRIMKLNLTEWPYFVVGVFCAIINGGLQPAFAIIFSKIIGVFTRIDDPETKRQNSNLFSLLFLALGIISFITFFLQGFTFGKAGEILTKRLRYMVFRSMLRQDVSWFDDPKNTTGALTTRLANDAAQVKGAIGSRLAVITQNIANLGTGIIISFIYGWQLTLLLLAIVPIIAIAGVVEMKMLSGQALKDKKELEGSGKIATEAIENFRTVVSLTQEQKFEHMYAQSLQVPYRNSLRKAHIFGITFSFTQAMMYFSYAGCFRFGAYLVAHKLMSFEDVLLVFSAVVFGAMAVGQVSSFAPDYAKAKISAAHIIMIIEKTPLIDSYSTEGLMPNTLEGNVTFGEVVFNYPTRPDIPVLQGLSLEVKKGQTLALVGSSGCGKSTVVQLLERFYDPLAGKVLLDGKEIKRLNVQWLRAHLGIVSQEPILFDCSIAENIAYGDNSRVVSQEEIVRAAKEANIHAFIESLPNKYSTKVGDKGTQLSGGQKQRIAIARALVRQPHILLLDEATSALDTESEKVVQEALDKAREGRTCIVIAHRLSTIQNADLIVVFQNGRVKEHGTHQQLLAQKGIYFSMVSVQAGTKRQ

docetaxel disposition, pairwise comparison with and without tariquidar ([2]; AUC0-24 and Cmax): no significant difference
geometric mean ratio of docetaxel AUC0-24 (with tariquidar/without tariquidar) ([2]; 31 patients, plasma): 1.07 (95% CI: 0.922-1.25)
geometric mean ratio of docetaxel Cmax (with tariquidar/without tariquidar) ([2]; 31 patients, plasma): 0.907 (95% CI: 0.697-1.18)
SMILES: CC(=O)O[C@@]12CO[C@@H]1C[C@H](O)[C@@]1(C)C(=O)[C@H](O)C3=C(C)[C@@H](OC(=O)[C@H](O)[C@@H](NC(=O)OC(C)(C)C)c4ccccc4)C[C@@](O)([C@@H](OC(=O)c4ccccc4)[C@H]21)C3(C)C [docetaxel]
epiphora secondary to canalicular stenosis, incidence [1]: 33-50%

inhibition of Pgp-mediated rhodamine transport (Pgp [3]; exogenously added valspodar 3 μg/ml): fully inhibits
SMILES: C/C=C/C[C@@H](C)C(=O)[C@H]1C(=O)N[C@@H](C(C)C)C(=O)N(C)CC(=O)N(C)[C@@H](CC(C)C)C(=O)N[C@@H](C(C)C)C(=O)N(C)[C@@H](CC(C)C)C(=O)N[C@@H](C)C(=O)N[C@H](C)C(=O)N(C)[C@@H](CC(C)C)C(=O)N(C)[C@@H](CC(C)C)C(=O)N(C)[C@@H](C(C)C)C(=O)N1C [valspodar]

SMILES: COc1cc2c(cc1OC)CN(CCc1ccc(NC(=O)c3cc(OC)c(OC)cc3NC(=O)c3cnc4ccccc4c3)cc1)CC2 [tariquidar]
rhodamine efflux from CD56+ cells compared to Pre levels (Pgp [3]; 24 h after start of tariquidar 150 mg IV infusion, 41 patients): significantly decreased
inhibition of Pgp in circulating mononuclear cells (Pgp [3]; tariquidar 150 mg IV): complete inhibition
change in sestamibi AUC, liver (Pgp [4]; P<0.001): statistically significant change
change in sestamibi AUC, visualized tumor tissue (Pgp [4]; P<0.001): statistically significant change
change in sestamibi AUC0-3, cardiac tissue (Pgp [4]; two-tailed Student's t-test): No statistically significant increase
change in sestamibi AUC0-3, lung tissue (Pgp [4]; two-tailed Student's t-test): No statistically significant increase
inhibition of ABCG2-mediated resistance in vitro (ABCG2): higher concentrations are required to inhibit ABCG2
inhibition of MRP1 (MRP1): does not inhibit
